Measurements published in paper PMC6389848, “Characterization and structure‐guided engineering of the novel versatile terpene monooxygenase CYP109Q5 from Chondromyces apiculatus DSM436” (Microbial Biotechnology, 2018).

Experiments:
[1] = biological target: T1, CYP109B1 (Bacillus subtilis, UniProt O34374); assay: in vitro biotransformation, GC-FID / GC-MS; assay type: biochemical; details: redox partners CamA/CamB from Pseudomonas putida, NAD(P)H, 1 mM substrate, 2 μM P450, pH 7.0, 30°C, 2 h
T1 construct: gene yjiB; purified enzyme; construct not described in main text
T1 sequence (O34374 1-396): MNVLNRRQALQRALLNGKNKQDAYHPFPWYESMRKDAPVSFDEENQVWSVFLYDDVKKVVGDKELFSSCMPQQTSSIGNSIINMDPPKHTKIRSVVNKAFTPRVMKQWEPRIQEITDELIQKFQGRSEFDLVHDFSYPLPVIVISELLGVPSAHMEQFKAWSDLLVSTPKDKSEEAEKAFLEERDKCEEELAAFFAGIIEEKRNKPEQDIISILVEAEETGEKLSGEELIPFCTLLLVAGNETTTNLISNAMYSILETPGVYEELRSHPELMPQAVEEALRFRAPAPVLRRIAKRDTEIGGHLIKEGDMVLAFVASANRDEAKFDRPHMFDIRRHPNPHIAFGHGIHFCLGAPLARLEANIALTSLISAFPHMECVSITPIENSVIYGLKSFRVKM

[2] = biological target: T2, CYP109Q5 (Chondromyces apiculatus, UniProt A0A017T5A5); assay: in vitro biotransformation, HPLC; assay type: biochemical; details: redox partners CamA/CamB from Pseudomonas putida, NAD(P)H, 1 mM substrate, 2 μM P450, pH 7.0, 30°C
T2 construct: gene CAP_4855; native gene from genomic DNA in pBAD33, untagged, E. coli JW5510, partially purified by anion exchange
T2 sequence (A0A017T5A5 1-397): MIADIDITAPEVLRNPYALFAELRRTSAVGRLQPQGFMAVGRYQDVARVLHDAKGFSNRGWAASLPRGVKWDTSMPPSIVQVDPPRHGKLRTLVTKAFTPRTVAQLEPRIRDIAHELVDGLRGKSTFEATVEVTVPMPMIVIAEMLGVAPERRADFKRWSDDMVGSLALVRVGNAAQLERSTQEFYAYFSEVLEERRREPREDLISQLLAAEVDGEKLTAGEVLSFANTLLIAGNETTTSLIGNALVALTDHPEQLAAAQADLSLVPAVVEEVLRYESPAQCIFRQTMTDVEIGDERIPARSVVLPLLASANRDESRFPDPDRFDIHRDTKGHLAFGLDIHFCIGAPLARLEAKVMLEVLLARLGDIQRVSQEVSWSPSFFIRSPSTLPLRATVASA

Row | SMILES | in vitro biotransformation, GC-FID / GC-MS [1] | in vitro biotransformation, HPLC [2]
1 | CC(=O)/C=C/C1=C(C)CCCC1(C)C [compound 1, β‐ionone] | The reference CYP109B1 hydroxylated β‐ionone exclusively in the allylic position | –
2 | O=C(O)Cc1ccccc1Nc1c(Cl)cccc1Cl [compound 26, diclofenac] | – | CYP109Q5 also exhibited activities towards diclofenac, mefenamic acid, nerolidol, camphor
